Data published in patent US10149907B2, “Combinations of a photosensitizer with a hydrogen sulfide donor, thioredoxin inhibitor or nitroxide for use in photodynamic therapy” (UNIVERSITY OF EXETER, priority 2014, dated 2018).
Like-named read-outs stand apart in the source and are kept apart here.

Legend:
A431 cells [1] = details: for tolerance over 72 hours: 0-1000 nM
Description: A431 cells were seeded at a density of 1×10^5 cells/ml in 96 well plates and incubated under 2% O2 for 48 h prior to treatment. After 24 h, the culture medium was replaced and the cells were placed back into the incubators under 2% O2. Following this incubation period, the culture medium was then removed and the plates were washed with PBS. The cells were then treated with 1 mM MAL in the absence or presence of one of the compounds of interest and then incubated again at 2% O2 for 3 h. For experiments carried out with SRHDs, this treatment step was carried out for 5 h at 2% O2. After treatment, the cells were washed with PBS, the culture medium was replaced and the cells were placed back under 2% O2 for 3 h. Following this final incubation, cell death was analysed using the resazurin viability assay.
Resazurin (7-hydroxy-3H-phenoxazin-3-one 0-oxide) is a weakly fluorescent blue dye used primarily in oxidation-reduction cell viability assays. Irreversible NADH-dependent reduction by the mitochondria in mammalian cells leads to the production of resorufin, a highly fluorescent product with excitation at 571 nm, emission at 585 nm.
A431 cells were seeded into 96 well plates at a density of 1.5*10^6 cells per ml (200 μl per well, 3*10^5 cells) and incubated for 24 h to adhere. Following incubation, the cells were washed and treated with the compound of interest for the relevant time, and then washed with PBS. […] After a 2 h incubation, the fluorescence of each well was measured (excitation: 571 nm, emission: 585 nm) using a fluorescence plate reader. Data from these experiments was plotted as a percentage of cell viability compared to untreated control cells.

A431 cells [2] = assay: cells; format: cell-based; details: for increase in cell killing compared to the use of MAL alone: 10 nM; for potency compared to CP94 (50 μM) exerting a similar degree of potentiation: 10 nM vs CP94 50 μM; for modes of cell death: 1 mM MAL + SRHD 10, 100 or 1000 nM + irradiation, FIG. 19
Description: A431 cells (human epithelial squamous cell carcinoma cells) were seeded at a density of 1×10^6 cells/ml in T12.5 cm^2 flasks and incubated under 2% O2 for 48 h prior to treatment. After 24 h, the culture medium was replaced and the cells were placed back into the incubators under 2% O2. Following this incubation period, the culture medium was then removed and the flasks were washed with PBS. The cells were then treated with one of the SRHDs and incubated at 2% O2 for 2 h, after which MAL was added to a final concentration of 1 mM and the cells were incubated at 2% O2 for 3 h. This meant in total, the cells were treated with the SRHDs for 5 h.
Following this final incubation, cell death was analysed by annexin V-FITC and propidium iodide staining in conjunction with flow cytometry.
Cell death analysis by flow cytometry was carried out using the annexin V-FITC/propidium iodide protocol. This protocol allows a quantitative assessment of cell death, particularly specific modes of death, and involves staining the cells with fluorescein isothiocyanate-conjugated annexin A5 (annexin V-FITC) and propidium iodide (PI). Positive staining with annexin V-FITC alone indicates an apoptotic cell; positive staining with PI alone indicates a necrotic cell and dual staining of both annexin V and PI indicates a “late apoptotic” cell.
From each flask being assessed, the old medium was removed and placed into a corresponding individual 15 ml Falcon tube in order to collect any cells that may have detached from the surface. The flask was washed once with 1 ml PBS; also deposited in the Falcon tubes. Trypsin (500 μl) was added to each flask and the flasks were returned to the incubator with their caps loosened. Cell detachment was monitored using an inverted light microscope, until 50% of the cells were detached. The flasks were then lightly tapped to detach the remainder of the cells. Medium (2 ml) was added to each flask in order to neutralise the trypsin present before being removed and dispensed into the Falcon tubes. One more wash with PBS was carried out in order to ensure any cells left in the flasks were collected. The Falcon tubes were then centrifuged at 490 g for 3 min, forming a pellet at the bottom of the tube. The supernatant was discarded, and the cells were re-suspended in 5 ml of PBS, in order to wash them, before being centrifuged again at 490 g for 3 min. […] The Falcon tubes were placed on ice and in the dark for 15 min to allow annexin V staining. […] The samples were then ready to be assessed by flow cytometry.
The following flow cytometry process of sample detection was used. When using annexin V-FITC and PI, the detectors being used were FL1 (λmax=520 nm) and FL3 (λmax=670 nm), respectively, each with their own logarithmic histogram generated by the software. The intensity of the fluorescence detected is measured on a logarithmic scale on the x-axis and the y-axis represents the number of cells detected at a given fluorescence intensity. A plot of FL1/FL3 produces a 4-quadrant graph, where unstained and untreated cells are located in the bottom left quadrant, representing any cells found in the 1st decade of the single plot logarithmic histograms. Single staining with annexin V-FITC and PI are located in the bottom right and top left quadrant, respectively, and dual staining is located in the top right quadrant. These quadrants represent any cells detected above the 1st decade of the logarithmic histograms.

A431 cells [3] = assay: Mitochondrial reactive oxygen species generation during photodynamic irradiation, MitoSOX flow cytometry; format: cell-based, human; details: irradiated
Description: A431 cells were treated concurrently with AP39-C10 (10, 100 or 1000 nM) for 5 hours, MAL (1 mM) for 3 hours and MitoSOX (2.5 μM) for 1 hour, after which they were irradiated for 5 min (630 nm, 25 J/cm^2) and MitoSOX (mito-2-OH-E^+) fluorescence, indicative of mitochondrial oxidant production, was immediately analysed by flow cytometry. Results are set out in FIG. 23.
Mitochondria-targeted dihydroethidium (i.e. MitoSOX) was used to assess the production of mitochondrial reactive oxygen species (ROS) by PpIX photochemical reactions and to determine the effects of AP39-C10 on this process. All of the results are represented as a percentage of the untreated controls (100.0±8.5%). The fluorescence of the photoirradiated cells, which had been pre-treated with MAL, was 193.7±7.3% (p<0.001 c.f. untreated controls).

A431 cells [4] = assay: MAL-induced PpIX accumulation, fluorescence plate reader; format: cell-based, human; details: 10, 100 and 1000 nM 5 hours + MAL 1 mM 3 hours; FIG. 21, 22
Description: After treatment, the cells were washed with PBS and a final 100 μl PBS was pipetted into each well for fluorescence readings. The fluorescence of PpIX was measured using a BMG Pherastar plate reader with a 410 nm excitation filter and a 630 nm emission filter.
A431 cells were treated concurrently with slow-releasing hydrogen sulfide donors (1 μM) for 5 hours and MAL (1 mM) for 3 hours, after which PpIX accumulation was measured by fluorescence plate reader (excitation 410 nm, […]). Co-treatment with CP94 (50 μM) was used as a positive control and for comparison.

[5] = 1 mM MAL + SRHD 10 nM (5 h) + irradiation, FIG. 18
[6] = 1 mM MAL + SRHD 100 nM (5 h) + irradiation, FIG. 18
[7] = 1 mM MAL + SRHD 1 μM (5 h) + irradiation, 3 h post-irradiation
[8] = 1 mM MAL + SRHD 1000 nM (5 h) + irradiation, FIG. 18
[9] = dark toxicity, without irradiation, SRHD 1 μM, 5 h, FIG. 1, 3
[10] = MAL 1 mM + SRHD 10 nM (5 hours)
[11] = MAL 1 mM + SRHD 100 nM (5 hours)
[12] = MAL 1 mM + SRHD 1000 nM (5 hours)

| Structure (SMILES) | tolerance over 72 hours (A431 cells [1]; 72 hours) | cell viability, percentage of untreated control (A431 cells [1]; 1000 nM, 72 hours, FIG. 17) | cell viability, percentage of untreated control (A431 cells [1]; 500 μM, 5 hours, FIG. 15, 16) | increase in cell killing compared to the use of MAL alone (A431 cells [2]) | potency compared to CP94 (50 μM) exerting a similar degree of potentiation (A431 cells [2]) | cell death (A431 cells [2]; [5]) | cell death (A431 cells [2]; [6]) | cell death (A431 cells [2]; [7]) | cell death (A431 cells [2]; [8]) | modes of cell death (A431 cells [2]) | cell death (A431 cells [2]; [9]) | MitoSOX fluorescence, percentage of untreated controls (A431 cells [3]; [10]) | MitoSOX fluorescence, percentage of untreated controls (A431 cells [3]; [11]) | MitoSOX fluorescence, percentage of untreated controls (A431 cells [3]; [12]) | effect on PpIX accumulation compared to 1 mM MAL (A431 cells [4]) |
| --- | --- | --- | --- | --- | --- | --- | --- | --- | --- | --- | --- | --- | --- | --- | --- |
| O=C(CCCCCCCCC[P+](c1ccccc1)(c1ccccc1)c1ccccc1)Oc1ccc(-c2cc(=S)ss2)cc1 [AP39-C10] | well tolerated at each concentration tested | 94.1±2.6% | 59.3±13.3% | ~2 fold | 5000 fold | 50.7±3.1% | 53.1±2.3% | 45.3±1.9% | 50.2±4.9% | a further increase in apoptosis and late apoptosis, with no apparent effect on necrotic cell death | 12.1±4.9% | 207.3±10.7% | 227.1±3.5% | 214.3±6.4% | no effect on PpIX accumulation across any of the tested concentrations |
| NC(=S)c1ccc(OC(=O)CCCCCCCCC[P+](c2ccccc2)(c2ccccc2)c2ccccc2)cc1 [AP123-C10] | well tolerated at each concentration tested | – | 62.6±9.1% | ~2 fold | 5000 fold | 57.2±1.3% | 56.5±2.7% | 50.9±6.5% | 66.7±5.6% | a further increase in apoptosis and late apoptosis, with no apparent effect on necrotic cell death | 14.5±0.5% | 237.4±8.2% | 245.3±10.6% | 248.1±15.1% | no effect on PpIX accumulation across any of the tested concentrations |
